Laboratory results from patent US5496697A, “Methods and apparatus for detecting the effect of cell affecting agents on living cells” (priority 1993, dated 1996).
Like-named read-outs stand apart in the source and are kept apart here.

What was measured:
Proteus mirabilis = type: cell-based; conditions: carbon source in medium; FIG. 22
Source text: While this method of serial delivery of selective substrates has certain potential advantages, parallel delivery of selective substrates to separate catches of bacteria could also be useful under certain circumstances. Furthermore, if bacteria are used for screening for antibiotic susceptibility or antibiotic activity, parallel delivery to separate catches may well be more appropriate because of potential problems of intereactions of drugs.
The bacteria, E. coli and Proteus mirabilis , were prepared as suspensions of about 5×10^8 cells/mL in a growth medium and then diluted into a sterile test medium containing glucose (Bactopeptone, 2 g/L; NACl, 5 g/L; K2 HPO4, 1.7 mM; glucose, 1 g/L; pH 7.3 ). With the controlling electrode piston in the raised position, as disclosed in pending U.S. patent application, Ser. No. 876,925, filed Jun. 20, 1986, now U.S. Pat. No. 5,292,846 one mL of bacterial suspension containing a known number of bacteria was flowed through the device such that the cells were retained adjacent to the silicon sensor surface by a Nucleopore membrane situated parallel to the surface. The cells were pulsed with the same glucose containing test medium, the piston was then lowered to decrease the volume surrounding the cells, and the change in pH due to bacterial metabolism was monitored. […] After lowering the piston the pH change was again monitored. […]

[1] = tested on: normal human keratinocytes; assay: metabolic rate of normal human keratinocytes exposed to irritants in the micro flow chamber (silicon sensor); type: cell-based; conditions: for IC50: Homo sapiens, Keratinocyte, read-out: -log10 (MRD50) (converted)
[2] = cited from earlier work
PGE1 receptor = assay: metabolic rate of M1C-2 cells stimulated through the PGE1 receptor; type: cell-based, mouse; conditions: PGE1, FIG. 27
MDCK cells [3] = assay: metabolic rate of MDCK cells grown on the silicon sensor surface; type: cell-based, canine
MDCK cells [4] = assay: metabolic rate of MDCK cells grown on a cover slip; type: cell-based, canine; conditions: for inhibition at 10000 µM: 10 mM theophylline
MDCK cells [5] = assay: steady-state potential of MDCK cells grown on the silicon sensor surface; type: cell-based, canine
Source text: It contains information on the pH of the small aqueous compartment between the cells and the sensor, and it contains information about trans-cellularpotentials, which are essentially batteries in series with the electronic circuit of the sensor.
The steadystate potential reported by the sensor (with fluid flow on) decreased gradually from the time the sensor was activated until the PMA was introduced. […] This signal is a composite of the trans-cellular potential and the sub-cellular pH (changes in the latter corresponding to 59 mV per pH unit).

MES-SA [6] = conditions: previously characterized; cited from earlier work
Dx5 = assay: cytotoxicity in Dx5 in the silicon microphysiometer; conditions: for time at which cytotoxicity is manifest: 100 μM, Dx5
MES-SA [7] = assay: cytotoxicity in MES-SA in the silicon microphysiometer
L cells [8] = tested on: L cells
L cells [9] = assay: cells; conditions: Mus musculus, 8 min, read-out: peak metabolic activity
[10] = tested on: murine macrophage-like line P388D1; assay: acidification rate of P388D1 cells trapped in etched wells; type: cell-based
Description: For many types of mammalian cells, a confluent monolayer (equivalent to about 10^7 cells/mL) commonly produces acidification rates within a factor of two of 100 μV/s. At 59 mV per pH and medium buffer capacity of 1 mM, this corresponds to a calculated net rate of H+ production of ~1·10^8 /s for a typical cell. The metabolic sources of these protons depend on the nutrients in the culture medium and the metabolic pathways that are active in the cells. Some insight into this can be gained using auxiliary biochemical measurements and specific metabolic poisons.
It is reversible, with a recovery time of about 20 min. after the removal of the uncoupler. Dose-response experiments show a maximum stimulation of the acidification rate near 2-5 μM CCCP, Presumably the mechanism is a combination of increased CO2 production and the stimulation of glycolysis to maintain homeostasis.

MDCK cells [11] = assay: metabolic rate of MDCK cells exposed to MgCl; type: cell-based, canine; conditions: 10 mM MgCl
MDCK cells [12] = assay: cells; conditions: Canis lupus familiaris
Description: MDCK cells in a confluent T-75 flask were trypsinized in order to remove them from their growth container. The cells were centrifuged at 2000 RPM for 5 minutes and the supernatant was discarded. The cells were resuspended in 5 mL of medium and centrifuged for 5 minutes at 3000 RPM. […] The cells were centrifuged for 3 minutes at 3000 RPM to pellet the cells. A 2 μL aliquot was taken directly from the cell pellet and spread over an approximate area of 40 mm^2 on the silicon sensor surface (in a partially assembled chamber).

E. coli = assay: response of E. coli to antibiotics in the flow cell; type: cell-based; conditions: FIG. 24
[13] = classification by in vivo tests such as the Draize test
[14] = concentrations necessary to depress metabolism of keratinocytes

For `O=C[C@H](O)[C@@H](O)[C@H](O)[C@H](O)CO` [glucose], the “change of pH” value (Proteus mirabilis) was “decreased the pH”.
For `CCCCCCCCCCCCOS(=O)(=O)[O-].[Na+]` [Na dodecyl sulfate, sodium dodecyl sulfate], the IC50 [1] is listed as 0.126 mM and the “In-Vivo Irritancy” value [2, 13] is listed as “Severe-moderate”.
In the case of `CCCCC[C@H](O)/C=C/[C@H]1[C@H](O)CC(=O)[C@@H]1CCCCCCC(=O)O` [PGE1, prostaglandin E1], the “increase in metabolic rate at peak” value (PGE1 receptor) is reported as 80%, the time of peak (PGE1 receptor) is reported as “approximately 1000 seconds” and the “time of return to base line metabolic rates” value (PGE1 receptor) is reported as 4000 s.
For `CCCCCCCCCCCCCC(=O)O[C@@H]1[C@@H](C)[C@@]2(O)[C@@H](C=C(CO)C[C@]3(O)C(=O)C(C)=C[C@@H]23)[C@@H]2C(C)(C)[C@]12OC(C)=O` [PMA, Phorbol myristate acetate], the “rise in metabolic rate at the peak” value (MDCK cells [3]; 10 ng/ml PMA) was “more than a doubling”, the “time of peak of metabolic rate” value (MDCK cells [3]; 10 ng/ml PMA) was “near an hour later” and the “metabolic rate upon addition of PMA” value (MDCK cells [4]; cover slip, data not shown) was “increase in metabolic rate”. The “steady-state potential reported by the sensor” value (MDCK cells [5]; 10 ng/ml PMA) was “dropped quickly to a minimum”, the “time to minimum of steady-state potential” value (MDCK cells [5]; 10 ng/ml PMA) was “about forty” and the “steady-state potential after removal of PMA” value (MDCK cells [5]; by the end of the experiment) was “returned to a value near its initial one”.
For `NC(N)=O` [urea], the “change of pH” value (Proteus mirabilis) was “increases the pH”.
For `Cn1c(=O)c2[nH]cnc2n(C)c1=O` [theophylline], the activation at 111 µM (MDCK cells [3]; Canis lupus familiaris, MDCK, read-out: increase in metabolic rate vs. control values on removal, after 111 μM theophylline) was 28%, the inhibition at 111 µM (MDCK cells [3]; Canis lupus familiaris, MDCK, 111 μM theophylline (therapeutic level), read-out: decrease in metabolic rate) was roughly 10% and the inhibition at 10000 µM (MDCK cells [3]; Canis lupus familiaris, MDCK, 10 mM theophylline, read-out: decrease in metabolic rate vs. control value) was 47%. The “time of return of metabolic rate to the control value” (MDCK cells [3]; after removal of 10 mM theophylline) was “ten”, the inhibition at 10000 µM (MDCK cells [4]; Canis lupus familiaris, MDCK, initial, read-out: decrease in metabolic rate) was 59% and the inhibition at 10000 µM (MDCK cells [4]; Canis lupus familiaris, MDCK, read-out: metabolic rate below the control value after gradual increase) was 48%. It also gave an activation at 10000 µM (MDCK cells [4]; Canis lupus familiaris, MDCK, after 10 mM theophylline, read-out: increase of metabolic rate over the control value on removal) of 30%.
With benzalkonium chloride [Benzalkonium Cl] the “decrease of cellular metabolic rate between two successive administrations” value ([1]; 30 μg/ml) was “real decrease of cellular metabolic rate between the two administrations”, the “recovery of metabolic rate after washout of irritant” value (“recovery … of irritant” for short) ([1]; FIG. 12) was “no recovery was obtained” and the “-log10 (MRD50)” value [1, 14] was 4.1. The “In-Vivo Irritancy” value [2, 13] was “Severe”.
For `CCO` [Ethanol], the “recovery … of irritant” value ([1]; FIG. 12) is given as “substantial recovery”, the “recovery … of irritant” value ([1]; separate test, FIG. 13) is given as “not from ethanol” and the “In-Vivo Irritancy” value [2, 13] is given as “Moderate-mild”.
In the case of `CC(O)CO` (stereo not drawn) [Propylene glycol], the “In-Vivo Irritancy” value ([2]; in vivo) is listed as “Mild”.
For `CC[C@]1(O)C[C@H]2CN(CCc3c([nH]c4ccccc34)[C@@](C(=O)OC)(c3cc4c(cc3OC)N(C=O)[C@H]3[C@@](O)(C(=O)OC)[C@H](OC(C)=O)[C@]5(CC)C=CCN6CC[C@]43[C@@H]65)C2)C1` [vincristine], the “sensitivity of MES-SA” value (MES-SA [6]) is listed as “sensitive”, the “time at which cytotoxicity is manifest” value (Dx5) is listed as 10 h and the “time at which cytotoxicity is manifest” value (MES-SA [7]; 100 μM vincristine, FIG. 46) is listed as 5 h.
In the case of `CO` [Methanol], the “In-Vivo Irritancy” value [2, 13] is given as “Moderate-mild”.
For `C[S+](C)[O-]` [Dimethyl sulfoxide], the “recovery … of irritant” value ([1]; separate test, FIG. 13) is given as “recover from DMSO but not from ethanol was shown” and the “In-Vivo Irritancy” value ([2]; in vivo) is given as “Mild”.
In the case of `CC(C)[C@@H]1NC(=O)[C@H](C)OC(=O)[C@@H](C(C)C)NC(=O)[C@@H](C(C)C)OC(=O)[C@H](C(C)C)NC(=O)[C@H](C)OC(=O)[C@@H](C(C)C)NC(=O)[C@@H](C(C)C)OC(=O)[C@H](C(C)C)NC(=O)[C@H](C)OC(=O)[C@@H](C(C)C)NC(=O)[C@@H](C(C)C)OC1=O` [valinomycin], the “peak metabolic rate relative to the initial rate” value (L cells [8]) is reported as “more than double the initial rate”, the “time of return of metabolic activity approximately to the initial value” (L cells [8]) is reported as no more than 20 min and the “time to peak of metabolic activity” value (L cells [8]) is reported as “four”. For the same compound, the fold induction at 100 µM (L cells [9]) was roughly 2.4.
In the case of `COc1cccc2c1C(=O)c1c(O)c3c(c(O)c1C2=O)C[C@@](O)(C(=O)CO)C[C@@H]3O[C@H]1C[C@H](N)[C@H](O)[C@H](C)O1` [doxorubicin], the “sensitivity of MES-SA” value (MES-SA [6]) is given as “sensitive”, the “time at which decreased acidification rates are evident” value (Dx5; 1 μM doxorubicin, Dx5, FIG. 45) is given as greater than 50 h and the “time at which cytotoxicity is manifest” value (Dx5) is given as 2.5 h. The “time at which decreased acidification rates are evident” value (MES-SA [7]; 1 μM doxorubicin, FIG. 45) was 15 h and the “time at which cytotoxicity is manifest” value (MES-SA [7]; 100 μM) was 0.5 h.
In the case of `NC(=O)CC[C@@H]1NC(=O)[C@H](Cc2ccccc2)NC(=O)[C@H](Cc2ccc(O)cc2)NC(=O)[C@@H](N)CSSC[C@@H](C(=O)N2CCC[C@H]2C(=O)N[C@@H](CCCN=C(N)N)C(=O)NCC(N)=O)NC(=O)[C@H](CC(N)=O)NC1=O` [vasopressin], the “increase in metabolic rate over control values” (MDCK cells [3]) is reported as 14%, the “increase in metabolic rate over the rate in 0.1 μM vasopressin” value (MDCK cells [3]) is reported as 19% and the “increase over the control rate value” (MDCK cells [3]) is reported as 42%. The “increase in metabolic rate” value (MDCK cells [4]) was “no increase in metabolic rate was observed”.
With `N=C(N)NC(=O)c1nc(Cl)c(N)nc1N` [amiloride] the inhibition at 1500 µM (MDCK cells [3]; Canis lupus familiaris, MDCK, 1.5 mM amiloride, immediate, read-out: decrease in apparent metabolic rate vs. medium only) was 20%, the activation at 1500 µM (MDCK cells [4]; Canis lupus familiaris, MDCK, 1.5 mM amiloride, gradual, read-out: increase of metabolic rate above medium only) was no more than 16% and the “metabolic rate after exposure was ceased” value (MDCK cells [4]; after 1.5 mM amiloride) was “returned to the original control value and then gradually continued to decline”.
In the case of `CC(C)=O` [Acetone], the “In-Vivo Irritancy” value [2, 13] is listed as “Moderate-mild”.
For `N#CC(C#N)=NNc1cccc(Cl)c1` [CCCP, carbonylcyanide chlorophenylhydrazone], the “recovery time after removal of the uncoupler” value ([10]; 20 μmM CCCP) was “about 20 min”, the “stimulation of acidification rate” value ([10]; 20 μmM CCCP, FIG. 42) was “prompt, faster than the resolution of the apparatus” and the “concentration of maximum stimulation of the acidification rate” value ([10]; dose-response experiments) was 2 to 5 µM.
For `CCCCO` [n-Butanol, 1-butanol], the IC50 [1, 14] is listed as 20 mM and the “In-Vivo Irritancy” value [2, 13] is listed as “Moderate”.
For `[Cl-].[Cl-].[Mg+2]` [MgCl, magnesium chloride], the “increase in metabolic rate vs. medium only” value (MDCK cells [11]) was 40-46%.
With `CNC[C@H](O)c1ccc(O)c(O)c1` [epinephrine] the activation at 3 µM (MDCK cells [3]; Canis lupus familiaris, MDCK, read-out: additional increase in metabolic rate on re-exposure) was 7%, the activation at 3 µM (MDCK cells [3]; Canis lupus familiaris, MDCK, read-out: increase in metabolic rate) was 20% and the activation at 3 µM (MDCK cells [3]; Canis lupus familiaris, MDCK, read-out: increase in metabolic rate over the control rate on re-exposure) was 20%. For the same compound, the activation at 3 µM (MDCK cells [3]; Canis lupus familiaris, MDCK, read-out: metabolic rate above control rate after removal) was 12%, the inhibition at 208 µM (MDCK cells [12]; read-out: decrease in metabolic rate vs. medium only) was 3% and the inhibition at 3 µM (MDCK cells [12]; read-out: decrease in metabolic rate vs. rate immediately after removal of the higher concentration) was 4.5%.
For polymyxin, the response to antibiotic (E. coli) was “do respond”.
With `CC[C@H](C)[C@@H]1NC(=O)[C@H](Cc2ccc(O)cc2)NC(=O)[C@@H](N)CSSC[C@@H](C(=O)N2CCC[C@H]2C(=O)N[C@@H](CC(C)C)C(=O)NCC(N)=O)NC(=O)[C@H](CC(N)=O)NC(=O)[C@H](CCC(N)=O)NC1=O` [oxytocin] the “immediate change in metabolic rate” value (MDCK cells [4]) was “did not result in any immediate change”, the “recovery of metabolic rate after removal” value (MDCK cells [4]) was 100% and the “time to full recovery of metabolic rate after removal” value (MDCK cells [4]) was “up to 10 minutes”. The “gradual decrease of metabolic rate” value (MDCK cells [4]; mdck, 1 µM) was “up to 10%”.
For `CC1(C)S[C@@H]2[C@H](NC(=O)Cc3ccccc3)C(=O)N2[C@H]1C(=O)O` [penicillin], the response to antibiotic (E. coli) was “do not respond”.
